These results are taken from PMC8951750, “In Vitro Anticancer and Cancer-Preventive Activity of New Triterpene Glycosides from the Far Eastern Starfish Solaster pacificus” (Marine Drugs, 2022).

Several values for one entry are separate records, joined by “and”; a condition that tells them apart may be missing. Identical values can stand only once. Like-named read-outs stand apart in the source and are kept apart here. Bounds are passed on as bounds.

Experiment [1] concerns human melanoma cells SK-MEL-28. In words: Cell viability, MTS assay, SK-MEL-28. The experiment is classed as cell-based. Particulars: for IC50: Homo sapiens, SK-MEL-28, 24 h, MTS assay, 24 h, read-out: IC50, cell viability SK-MEL-28; for SI (selectivity index) SK-MEL-28: IC50 JB6 Cl41 / IC50 SK-MEL-28. The protocol: (§1) MTS assay was used to measure the cell viability of tested normal and cancer cells. Cells were seeded into 96-well plates (“Jet Biofil”, Guangzhou, China) at density of 1.0 × 10^4/200 µL for 24 h at 37 °C in a 5% CO2 incubator. Then, cell monolayer was treated either with DMSO (control) or various concentrations of the triterpene glycosides 1–9 from S. pacificus (0.1, 0.5, 2.5, 12.5, 62.5 µM) in fresh appropriate culture medium for 24 h. Subsequently, the cells were incubated with 15 µL of 3-(4,5-dimethylthiazol-2-yl)-5-(3-carboxymethoxyphenyl)-2-(4-sulfophenyl)-2H-tetrazolium (MTS reagent) (“Promega”, Madison, WI, USA) for 3 h, and the absorbance of each well was measured at 490/630 nm using Power Wave XS microplate reader (“BioTek”, Wynusky, VT, USA). The concentration at which the compounds exert half of their maximal inhibitory effect on cell viability (IC50) was calculated by the AAT-Bioquest® online calculator [39]. The selectivity index (SI) was calculated as described previously using the following formula SI = IC50 of the compounds in normal cell (JB6 Cl41)/IC50 of the same compounds in human melanoma cell lines (SK-MEL-2, SK-MEL-28, or RPMI-7951).

For another experiment, the system named is SK-MEL-2 cells. In words: Soft agar assay, colony formation of cancer cells. Particulars: compound 0.1 µM, 14 days. The format is cell-based, human. As for the experimental part: SK-MEL-2 cells (2.4 × 10^4) were treated either with DMSO (control) or the triterpene glycosides 1–9 from S. pacificus (0.1 µM) in 1 mL of agar mix. After 14 days, colonies of cancer cells were scored as described above.

Experiment [2] has as its system JB6 Cl41 cells. Description: Soft agar assay, X-ray-induced neoplastic cell transformation. The experiment is classed as cell-based, mouse. The settings on record: Mus musculus, JB6 Cl41, 504 h; compound 0.1 µM, X-rays 0.5 Gy three times a week for 3 weeks, soft agar; read-out: inhibition of X-ray-induced cell transformation (JB6 Cl41 colonies formation). As for the experimental part:
(§2) JB6 Cl41 cells (2.4 × 10^4) were exposed to epidermal growth factor (EGF) (1 ng/mL) or phorbol 12-myristate 13-acetate (TPA) (10 ng/mL) and treated either with DMSO (control) or the triterpene glycosides 1–9 from S. pacificus (0.1, 0.5, and 1 µM) in 1 mL of 0.3% basal medium Eagle (BME) agar containing 10% FBS, 2 mM L-glutamine, and 25 µg/mL gentamicin (agar mix). The cultures were maintained in a humidified atmosphere with 5% CO2 at 37 °C for 14 days, and the cell’s colonies were scored using a microscope, Motic AE 20 (XiangAn, Xiamen, China), and the ImageJ software bundled with 64-bit Java 1.8.0_112 (NIH, Bethesda, MD, USA). To determine the effect of investigated compounds on neoplastic cell transformation induced by ionizing radiation (X-ray or UVB), JB6 Cl41 cells (3 × 10^5/dish) were seeded in 60 mm dishes and cultured for 24 h at 37 °C in 5% CO2 incubator. Then, the cells were exposed to X-rays (X-ray system XPERT 80 (KUB Technologies, Inc, Milford, CT, USA)) at dose of 0.5 Gy or UVB (wavelengths below 312 nm) (Bio-Link UV irradiation system, Vilber, France) at dose of 0.3 J/cm^2 three times a week for 3 weeks. Irradiated JB6 Cl41 cells (2.4 × 10^4) were treated either with DMSO (control) or the triterpene glycosides 1–9 from S. pacificus (0.1, 0.5, and 1 µM) in 1 mL of agar mix. The cultures were maintained in a humidified atmosphere with 5% CO2 at 37 °C for 14 days, and the cell’s colonies were scored using a microscope, Motic AE 20 (XiangAn, Xiamen 361101, China), and the ImageJ software bundled with 64-bit Java 1.8.0_112 (NIH, Bethesda, MD, USA).

For experiment [3], the system named is JB6 Cl41 cells. Description: Soft agar assay, EGF-induced neoplastic cell transformation. The format is cell-based, mouse. Particulars: Mus musculus, JB6 Cl41, 336 h, compound 0.1 µM, EGF 1 ng/mL, soft agar, 2 weeks, vs positive control; read-out: inhibition of EGF-induced neoplastic transformation of JB6 Cl41 cells. The protocol: as §2
For experiment [4], the system named is human melanoma cells RPMI-7951. Description: Cell viability, MTS assay, RPMI-7951. The format is cell-based. The settings on record: for IC50: Homo sapiens, RPMI-7951, 24 h, MTS assay, 24 h, read-out: IC50, cell viability RPMI-7951; for SI (selectivity index) RPMI-7951: IC50 JB6 Cl41 / IC50 RPMI-7951. The protocol:
as §1
(In general: Tetrazolium dyes change colour on reduction, which living cells bring about.)

The test system of experiment [5] is JB6 Cl41 cells. Description: Soft agar assay, UVB-induced neoplastic cell transformation. The format is cell-based, mouse. The settings on record: compound 0.1 µM, UVB 0.3 J/cm^2 three times a week for 3 weeks, soft agar; for inhibition at 0.1 µM: Mus musculus, JB6 Cl41, light or radiation study, 504 h, read-out: inhibition of UVB-induced neoplastic cell transformation (decrease of colonies number). The protocol: as §2

Experiment [6] has as its system Human erythrocytes (O(I)+). Description: Hemolysis assay. The format is cell-based. Particulars: 1 h, 37 °C, PBS pH 7.4. The protocol:
Human erythrocytes (O(I)+) were obtained from Vladivostok blood transfusion station. Erythrocytes were centrifuged with PBS (pH 7.4) for 5 min at 4 °C by 450× g on a LABOFUGE 400R (Heraeus, Hanau, Germany) centrifuge three times. Then, the residue of erythrocytes was resuspended in ice-cold PBS (pH 7.4) to a final optical density of 2.0 at 700 nm and kept on ice. For the hemolytic assay, 180 µL of erythrocyte suspension was mixed with 20 µL of Cucumarioside A2-2 (positive control) and investigated compounds at concentrations range of 0.1, 0.5, 1, 5, 10 µM in V-bottom 96-well plates. After 1 h of incubation at 37 °C, plates were centrifuged at 900× g for 10 min on an LMC-3000 (Biosan, Riga, Latvia) laboratory centrifuge. Then, we carefully selected 100 µL of supernatant and transferred it to new flat plates, respectively. Lysis of erythrocytes was determined by measuring the concentration of hemoglobin in the supernatant with a microplate photometer Multiskan FC (Thermo Fisher Scientific, Waltham, MA, USA) at 570 nm. The effective dose causing 50% of erythrocytes hemolysis (ED50) was calculated using the computer program SigmaPlot 10.0. All experiments were made in triplicate, p < 0.01.

The test system of experiment [7] is human melanoma cells SK-MEL-2. In words: Cell viability, MTS assay, SK-MEL-2. The experiment is classed as cell-based. The settings on record: for IC50: MTS assay, 24 h, read-out: IC50, cell viability SK-MEL-2; for SI (selectivity index) SK-MEL-2: IC50 JB6 Cl41 / IC50 SK-MEL-2. The protocol: as §1
The subject of experiment [8] is non-cancerous mouse epidermal cells JB6 Cl41. In words: Cell viability, MTS assay, JB6 Cl41. The format is cell-based. Particulars: MTS assay, 24 h, normal cells, read-out: IC50, cell viability JB6 Cl41. The protocol:
as §1

Experiment [9] deals with JB6 Cl41 cells. In words: Soft agar assay, TPA-induced neoplastic cell transformation. Particulars: Mus musculus, JB6 Cl41, 336 h, compound 0.1 µM, TPA 10 ng/mL, soft agar, 2 weeks, vs positive control; read-out: inhibition of TPA-induced neoplastic transformation of JB6 Cl41 cells. The format is cell-based, mouse. As for the experimental part:
as §2

The IC50 is the concentration that gives 50% inhibition. By inhibition is commonly meant the drop in the measured response relative to a control, in per cent. Consider `COC1C(O)C(CO)OC(OC2C(O)C(CO)OC(OC3C(C)OC(OC4C(OC5CCC6(C)C7CCC89C(=O)OC(C)(C=CC=C(C)C)C8C(OC(C)=O)CC9(C)C7=CCC6C5(C)C)OCC(O)C4O)C(OC4OCC(O)C(O)C4O)C3O)C2O)C1O` [Compound 1, 3β-O-{3-O-methyl-β-D-glucopyranosyl-(1→3)-β-D-glucopyranosyl-(1→4)-[β-D-xylopyranosyl-(1→2)]-β-D-quinovopyranosyl-(1→2)-β-D-xylopyranosyl}-16β-acetoxyholosta-7,22E,24-triene], for which the IC50 was 8.4 ± 0.07 µM in experiment [1]; 26.7 ± 0.1 µM in [4]; under 1 µM in [7] (Homo sapiens, SK-MEL-2, 24 h); 0.7 ± 0.07 µM in experiment [7]; 6.4 ± 0.05 µM in [8] (Mus musculus, JB6 Cl41, 24 h). The “SI (selectivity index) SK-MEL-28” value in [1] turned out to be 0.8. For the same compound, the “decrease of colonies number of SK-MEL-2 cells (colony formation)” value in the experiment with SK-MEL-2 cells came out at 64%. The inhibition at 0.1 µM with JB6 Cl41 cells [2] was 94%; with JB6 Cl41 cells [3], 94%; with JB6 Cl41 cells [5] it was 96%; with JB6 Cl41 cells [9] it was 98%. Moreover, in [4], the “SI (selectivity index) RPMI-7951” value amounted to 0.24. Also, the “ED50, effective dose causing 50% of erythrocytes hemolysis” value in [6] was 2.03 µM and 2.03 ± 0.19 µM. Further, the “SI (selectivity index) SK-MEL-2” value in [7] was 9.1.
For `CC(=O)OC1CC2(C)C3=CCC4C(C)(C)C(OC5OCC(O)C(O)C5OC5OC(C)C(OC6OC(CO)C(O)C(O)C6O)C(O)C5OC5OCC(O)C(O)C5O)CCC4(C)C3CCC23C(=O)OC(C)(C=CC=C(C)C)C13` [Compound 2, 3β-O-{β-D-glucopyranosyl-(1→4)-[β-D-xylopyranosyl-(1→2)]-β-D-quinovopyranosyl-(1→2)-β-D-xylopyranosyl}-16β-acetoxyholosta-7,22E,24-triene], the half-maximal inhibitory concentration (IC50) stood at 29 ± 0.02 µM in experiment [1]; 36.4 ± 0.2 µM in experiment [4]; 37.6 ± 0.2 µM in experiment [7] (Homo sapiens, SK-MEL-2, 24 h); 31.5 ± 4.1 µM in [8]. Besides, in experiment [1], the “SI (selectivity index) SK-MEL-28” value is 1.0. Besides, in the experiment with SK-MEL-2 cells, the “decrease of colonies number of SK-MEL-2 cells (colony formation)” value was determined as 3%. For the same compound, the inhibition at 0.1 µM was under 15% with JB6 Cl41 cells [2], 25% with JB6 Cl41 cells [3] and 18% with JB6 Cl41 cells [9]. The “SI (selectivity index) RPMI-7951” value in experiment [4] came out at 0.87. The “inhibition of UVB-induced neoplastic cell transformation (decrease of colonies number)” value with JB6 Cl41 cells [5] is reported as “not effective”. In addition, the “ED50, effective dose causing 50% of erythrocytes hemolysis” value in experiment [6] came to 4.08 ± 0.36 µM. Further, in experiment [7], the “SI (selectivity index) SK-MEL-2” value came to 0.8.
For `C=C(C)C1C2CC3(C)C4=CCC5C(C)(C)C(OC6OCC(O)C(O)C6OC6OC(C)C(OC7OC(COS(=O)(=O)O)C(O)C(OC8OCC(O)C(OC)C8O)C7O)C(O)C6O)CCC5(C)C4CCC13C(=O)O2` [Compound 9, 3β-O-{3-O-methyl-β-D-xylopyranosyl-(1→3)-6-O-6-sulfoxy-β-D-glucopyranosyl-(1→4)-β-D-quinovopyranosyl-(1→2)-β-D-xylopyranosyl}-23,24,25,26,27-pentanor-5α-lanosta-7,20(22)-diene-18(16)-lactone], the IC50 is 23.3 ± 0.6 µM in experiment [1]; 32.4 ± 0.08 µM in experiment [4]; under 1 µM in experiment [7] (Homo sapiens, SK-MEL-2, 24 h); 0.75 ± 0.03 µM in experiment [7]; 7.4 ± 0.8 µM in experiment [8] (Mus musculus, JB6 Cl41, 24 h). For the same compound, the “SI (selectivity index) SK-MEL-28” value in experiment [1] is recorded as 0.32. Also, the inhibition at 0.1 µM was found to be 28% in the experiment on JB6 Cl41 cells [2], 34% with JB6 Cl41 cells [3], 11% in the experiment on JB6 Cl41 cells [5] and 42% with JB6 Cl41 cells [9]. In addition, in experiment [4], the “SI (selectivity index) RPMI-7951” value is given as 0.23. In addition, the “ED50, effective dose causing 50% of erythrocytes hemolysis” value in experiment [6] amounted to 2.85 ± 0.14 µM. For the same compound, the “SI (selectivity index) SK-MEL-2” value in [7] is recorded as 9.9.
In the case of `C=C(C)CCCC1(C)OC(=O)C23CCC4C(=CCC5C(C)(C)C(OC6OCC(OS(=O)(=O)[O-])C(O)C6OC6OC(C)C(OC7OC(CO)C(O)C(OC8OC(CO)C(O)C(OC)C8O)C7O)C(O)C6OC6OCC(O)C(O)C6O)CCC45C)C2(C)CC(=O)C13.[Na+]` (centres unmarked) [Cucumarioside A2-2, reference compound], the “ED50, effective dose causing 50% of erythrocytes hemolysis” value in [6] is recorded as 0.95 ± 0.04 µM.
